For experiment [1], the system named is AT-remodeled canine left atrial (LA) preparations. The experiment in a line: Atrial tachyarrhythmia induction in AT-remodeled coronary-perfused LA preparations in vitro. How it is done:
Briefly, dogs were subjected to 7-13 days of AT at about 400 beats per minute (bpm). LA preparations were then coronary-perfused and studied intact in vitro or subjected to cardiomyocyte isolation. IKH was studied with patch clamp.
Adult dogs were divided into control and AT groups. AT dogs were initially anesthetized with diazepam (0.25 mg/kg IV), ketamine (5.0 mg/kg IV), and halothane (1% to 2%) for transvenous insertion of right ventricular (RV) and right atrial (RA) unipolar pacing leads connected to ventricular and atrial pacemakers implanted in the neck. Pacing began 24 hours after pacemaker implantation. AV block was created by radiofrequency catheter ablation and the RV demand-pacemaker was programmed to 80 bpm. The RA was then tachypaced (400 bpm) for 7-13 days.
On study days, dogs were anesthetized with pentobarbital (30 mg·kg^−1 I.V.) and artificially ventilated. Hearts and adjacent lung tissue were excised via a left thoracotomy and immersed in oxygenated Tyrode solution. For cell isolation, the proximal circumflex coronary artery was cannulated and distal ends of PV myocardial sleeves were marked with silk thread prior to enzyme perfusion with collagenase (100 U mL^−1, Worthington, type II), to facilitate identification after enzymatic digestion. PVs were well-perfused and single cardiomyocytes were isolated from all PVs. After isolation, cells were stored at 4° C. and studied within 12 hours.
For standard-microelectrode experiments and atrial-tachyarrhythmia induction, intact tissue preparations including the LA and adjacent PVs were mounted in a Plexiglas chamber and perfused via the left circumflex coronary artery with oxygenated Kreb's solution at 36±0.5° C. Fine-tipped microelectrodes (resistance 15-20 MΩ when filled with 3-mol/L KCL) coupled to a high-input impedance amplifier were used to record Action Potentials.
For atrial tachyarrhythmia induction, single S2-extrastimuli following 15 S1-stimuli at basic cycle lengths (CLs) of 150-400 ms with a 5-second pause to observe the response were used. All stimuli were twice-threshold, 2-ms pulses.

The next experiment deals with IKATP (Homo sapiens, UniProt Q14654). Conditions: at concentrations of 8 to 30 nM; cited from earlier work.
The test system of a further experiment is Ito. The note with it: at concentrations of 8 to 30 nM; cited from earlier work.
The subject of experiment [2] is multicellular canine atrial preparations. As to the kind of experiment: Action potential recording with standard microelectrodes in multicellular canine atrial preparations (LA and PV). Conditions: for APD90 / APD25 / APD50: after tertiapin-Q (200 nM per table title); for APD90: atropine present, 2 Hz. Here is the method:
Adult mongrel dogs of either sex (weighing about 20-35 kg) were anaesthetized with pentobarbital (30 mg kg^−1 I.V.) and artificially ventilated with room air. Hearts and adjacent lung tissue were relatively quickly excised through a left lateral thoracotomy and immersed in oxygenated Tyrode solution (composition detailed hereinbelow) at room temperature. Removal of the heart and lungs produced circulatory arrest, resulting in relatively effective and relatively humane killing. A left atrial (LA) preparation with the PVs intact was perfused via the left circumflex coronary artery, and subjected to either standard fine-tipped microelectrode recording of action potentials (APs) or cardiomyocyte isolation with collagenase-containing solutions, as previously described (Ehrlich et al. 2003). Six dogs were subjected to atrial tachycardia-induced remodeling induced by 1 week of atrial pacing at about 400 beats min^−1 after ablation of the AV node, as described in Li et al. 1999. Animal care and handling procedures followed the guidelines of the Canadian Council on Animal Care.
To isolate LA and PV cardiomyocytes, the proximal circumflex artery was cannulated and the distal ends of PV myocardial sleeves (approximately 1-1.5 cm from the PV-LA junction) were marked with silk thread prior to subsequent enzyme perfusion with collagenase (100 U ml^−1, Worthington, type II), in order to facilitate localization of PV sleeves after enzymatic digestion. […] With this method, PVs were relatively well-perfused and single cardiomyocytes could be isolated from all veins. Cardiomyocytes obtained from PVs were morphologically similar to LA cardiomyocytes isolated from the LA free wall in the same dogs. All comparisons were based on PV and LA cardiomyocytes isolated from each dog on each experimental day. After isolation, cells were stored at 4° C. and studied on the same day. For standard microelectrode experiments, intact tissue preparations including the LA and adjacent PVs were mounted in a chamber and perfused via the circumflex artery with oxygenated Krebs solution at 36±0.5° C. (see for example Kneller et al. 2002).
Fine-tipped microelectrodes (resistance 15-20 M when filled with 3 M KCl) coupled to a high input-impedance amplifier were used to record APs as described in Kneller et al. 2002.
Tyrode solution contained (mM): NaCl 136, KCl 5.4, MgCl2 1, CaCl2 1, NaH2PO4 0.33, Hepes 5 and dextrose 10 (pH 7.35 with NaOH). The cell-storage solution contained (mM): KCl 20, KH2PO4 10, dextrose 10, mannitol 40, L-glutamic acid 70, β-OH-butyric acid 10, taurine 20, EGTA 10 and 0.1% bovine serum albumin (pH 7.3, KOH). Nifedipine (5 μM) was used to suppress L-type Ca^2+ current (ICa) in all experiments. 4-Aminopyridine (4-AP, 2 mM) was added to suppress transient outward current (Ito). […] Na+ current (INa) contamination was avoided by using a HP of −40 mV for recording of hyperpolarization-induced currents and by substitution of equimolar Tris-HCl for external NaCl for tail-current recordings. When different external K^+ concentrations were applied, the osmolarity was kept constant by proportionate reduction of NaCl content in the solution. The standard internal solution contained (mM): potassium aspartate 110, KCl 20, MgCl2 1, MgATP 5, GTP (lithium salt) 0.1, Hepes 10, sodium phosphocreatine 5 and EGTA 5.0 (pH 7.3 with KOH). In experiments with K+-free internal solution, potassium aspartate was replaced by equimolar caesium aspartate and KCl by CsCl and pH was set to 7.3 with CsOH. For standard-microelectrode experiments, a solution containing (mM): NaCl 120, KCl 4, KH2PO4 1.2, MgSO4 1.2, NaHCO3 25, CaCl2 1.25 and dextrose 5 (95% O2-5% CO2, pH 7.4) was used to perfuse the tissue.
FIGS. 5E and F show representative APs before and after 100 nM tertiapin-Q in LA and PV.

For another experiment, the target named is IKs (Homo sapiens, UniProt P51787). The note with it: at concentrations of 8 to 30 nM; cited from earlier work.

Chain of IKATP (Q14654 whole entry, species assumed): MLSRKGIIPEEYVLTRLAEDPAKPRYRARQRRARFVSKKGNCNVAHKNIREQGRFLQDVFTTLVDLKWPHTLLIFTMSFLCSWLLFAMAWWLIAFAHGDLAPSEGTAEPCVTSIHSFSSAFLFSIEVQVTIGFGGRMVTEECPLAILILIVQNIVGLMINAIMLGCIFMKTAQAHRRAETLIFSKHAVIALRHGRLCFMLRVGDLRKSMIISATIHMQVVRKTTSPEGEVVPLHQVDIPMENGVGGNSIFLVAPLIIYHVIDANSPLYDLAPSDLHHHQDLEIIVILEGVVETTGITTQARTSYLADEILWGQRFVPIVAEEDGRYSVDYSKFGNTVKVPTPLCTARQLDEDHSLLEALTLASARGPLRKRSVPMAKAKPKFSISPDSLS
Chain of IKATP (O60706 whole entry partner, species assumed): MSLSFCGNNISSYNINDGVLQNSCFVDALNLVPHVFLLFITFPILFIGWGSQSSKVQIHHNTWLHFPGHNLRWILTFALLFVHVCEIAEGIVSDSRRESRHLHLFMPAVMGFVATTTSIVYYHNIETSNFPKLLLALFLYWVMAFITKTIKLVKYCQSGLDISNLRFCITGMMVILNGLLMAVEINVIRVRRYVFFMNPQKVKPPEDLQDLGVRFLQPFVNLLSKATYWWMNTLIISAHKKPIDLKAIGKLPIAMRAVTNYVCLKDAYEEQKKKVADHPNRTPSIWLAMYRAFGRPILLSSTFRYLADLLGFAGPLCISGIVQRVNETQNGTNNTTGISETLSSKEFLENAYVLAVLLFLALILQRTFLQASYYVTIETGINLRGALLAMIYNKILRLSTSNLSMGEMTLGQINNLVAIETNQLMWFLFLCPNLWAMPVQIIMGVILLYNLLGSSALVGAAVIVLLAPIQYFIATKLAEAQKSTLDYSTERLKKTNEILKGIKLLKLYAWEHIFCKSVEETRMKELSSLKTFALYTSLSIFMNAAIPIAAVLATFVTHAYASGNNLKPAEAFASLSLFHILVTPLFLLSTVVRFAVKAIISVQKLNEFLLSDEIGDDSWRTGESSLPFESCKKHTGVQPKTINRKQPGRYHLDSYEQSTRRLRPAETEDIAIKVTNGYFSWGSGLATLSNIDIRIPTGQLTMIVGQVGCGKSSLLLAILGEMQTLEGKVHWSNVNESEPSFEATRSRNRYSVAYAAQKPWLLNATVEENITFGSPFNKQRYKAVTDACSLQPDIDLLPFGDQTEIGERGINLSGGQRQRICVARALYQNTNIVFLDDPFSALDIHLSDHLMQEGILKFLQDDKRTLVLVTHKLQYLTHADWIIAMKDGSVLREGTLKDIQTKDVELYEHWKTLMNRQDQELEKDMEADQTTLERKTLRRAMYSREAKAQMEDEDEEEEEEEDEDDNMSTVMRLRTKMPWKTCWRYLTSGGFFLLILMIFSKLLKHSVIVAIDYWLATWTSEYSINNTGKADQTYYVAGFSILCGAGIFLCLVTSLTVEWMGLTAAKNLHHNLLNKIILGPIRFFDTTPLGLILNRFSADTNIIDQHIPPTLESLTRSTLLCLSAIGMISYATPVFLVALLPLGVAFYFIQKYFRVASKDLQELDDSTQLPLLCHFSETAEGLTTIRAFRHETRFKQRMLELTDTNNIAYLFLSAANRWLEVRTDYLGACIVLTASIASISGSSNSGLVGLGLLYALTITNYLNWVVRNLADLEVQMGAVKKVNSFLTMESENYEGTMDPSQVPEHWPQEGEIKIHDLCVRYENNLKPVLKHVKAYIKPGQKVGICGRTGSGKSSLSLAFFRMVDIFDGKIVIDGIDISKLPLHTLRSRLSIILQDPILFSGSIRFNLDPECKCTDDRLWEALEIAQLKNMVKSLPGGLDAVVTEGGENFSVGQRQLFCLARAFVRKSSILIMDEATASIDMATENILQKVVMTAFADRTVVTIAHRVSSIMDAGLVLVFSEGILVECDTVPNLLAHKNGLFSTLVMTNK

For tertiapin-Q, in experiment [1] (100 nM TQ, without TQ 108±0.3 ms), the tachyarrhythmia cycle length came to 179 ± 0.8 ms. For the same substance, the mean tachyarrhythmia duration in experiment [1] (100 nM TQ, without TQ 11602±604 ms) amounted to 520 ± 6 ms. Besides, in experiment [1] (2 cases of tachyarrhythmia lasting uninterrupted for more than 20 minutes), the “time to termination of arrhythmia after TQ administration” value was at most 4 min. In addition, the “effect on IKATP (in words)” value at IKATP is “no effect”. Besides, the “effect on Ito (in words)” value in the experiment on Ito is given as “no effect”. In experiment [2] (100 nM tertiapin-Q, 200 nM atropine), the “effect on AP duration in LA and PV (in words)” value is given as “significantly prolonged”. Also, the APD90 in experiment [2] (LA, control 202.6 ± 2.6) is 242.7 ± 6.2 ms; in experiment [2] (PV, control 190.4 ± 4.3) it was 234.2 ± 9.9 ms. Moreover, the APD25 in experiment [2] (LA, control 78.1 ± 2.8) is 84.7 ± 4.0 ms; in experiment [2] (PV, control 71.3 ± 3.4), 86.1 ± 5.0 ms. Besides, the APD50 turned out to be 146.8 ± 3.2 ms in experiment [2] (LA, control 130.2 ± 4.0) and 126.8 ± 6.9 ms in experiment [2] (PV, control 104.0 ± 3.8). Besides, the “effect on IKs (in words)” value on IKs is on record as “no effect”.

Values taken from patent US20060094003A1, “Acetylcholine-dependent current as a novel ionic target for atrial fibrillation” (priority 2004, published 2006).
